# Target: Calcium-activated potassium channel subunit alpha-1 (Homo sapiens) (UniProt Q12791)
# Experiment: Activation of human BKalpha channel expressed in CHOK1 cells assessed as increase in ionic current at 30 uM by patch clamp method relative to control
# Type: cell-based
# Details: CHO-K1
# Chain of Calcium-activated potassium channel subunit alpha-1 (Homo sapiens) (Q12791 whole entry): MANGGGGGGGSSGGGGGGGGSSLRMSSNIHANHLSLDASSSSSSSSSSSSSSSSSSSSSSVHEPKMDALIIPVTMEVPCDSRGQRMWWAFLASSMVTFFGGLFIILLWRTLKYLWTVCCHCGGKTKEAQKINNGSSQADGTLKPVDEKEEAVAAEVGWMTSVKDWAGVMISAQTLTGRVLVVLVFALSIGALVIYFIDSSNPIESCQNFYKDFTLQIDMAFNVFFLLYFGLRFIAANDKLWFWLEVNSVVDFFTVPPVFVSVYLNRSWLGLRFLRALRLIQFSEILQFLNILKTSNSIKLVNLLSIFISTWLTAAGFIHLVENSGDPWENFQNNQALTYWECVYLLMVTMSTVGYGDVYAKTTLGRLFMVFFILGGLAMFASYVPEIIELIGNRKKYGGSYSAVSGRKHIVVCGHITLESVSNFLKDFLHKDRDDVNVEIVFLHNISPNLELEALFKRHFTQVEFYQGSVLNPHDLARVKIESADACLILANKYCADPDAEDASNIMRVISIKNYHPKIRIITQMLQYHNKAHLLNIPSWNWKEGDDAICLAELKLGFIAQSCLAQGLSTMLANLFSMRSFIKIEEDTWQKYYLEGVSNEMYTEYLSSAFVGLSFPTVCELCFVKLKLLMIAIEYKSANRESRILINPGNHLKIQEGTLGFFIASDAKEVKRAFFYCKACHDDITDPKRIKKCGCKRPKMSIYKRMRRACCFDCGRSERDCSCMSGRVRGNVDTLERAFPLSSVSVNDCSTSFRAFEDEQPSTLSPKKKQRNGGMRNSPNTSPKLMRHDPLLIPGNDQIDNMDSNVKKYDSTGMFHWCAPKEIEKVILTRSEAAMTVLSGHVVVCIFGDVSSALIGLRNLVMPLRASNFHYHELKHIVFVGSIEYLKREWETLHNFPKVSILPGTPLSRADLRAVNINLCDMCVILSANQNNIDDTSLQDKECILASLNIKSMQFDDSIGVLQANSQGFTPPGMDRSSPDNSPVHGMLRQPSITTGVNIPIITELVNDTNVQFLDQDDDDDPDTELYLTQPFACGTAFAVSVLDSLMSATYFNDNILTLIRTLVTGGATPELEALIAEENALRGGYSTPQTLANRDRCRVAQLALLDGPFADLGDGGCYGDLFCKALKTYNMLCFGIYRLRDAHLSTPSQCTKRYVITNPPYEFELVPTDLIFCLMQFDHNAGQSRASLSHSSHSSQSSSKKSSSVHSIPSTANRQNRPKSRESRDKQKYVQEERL
row,Activity [%],SMILES
1,566,C=CCO/N=C1\C[C@H]2[C@](C)(C(=O)O)CCC[C@]2(C)c2cc(Cl)c(C(C)C)c(Cl)c21
2,425,C#CCO/N=C1\C[C@H]2[C@](C)(C(=O)O)CCC[C@]2(C)c2cc(Cl)c(C(C)C)c(Cl)c21
3,410,CO/N=C1\C[C@H]2[C@](C)(C(=O)O)CCC[C@]2(C)c2cc(Cl)c(C(C)C)c(Cl)c21
4,325,O=c1[nH]c2cc(C(F)(F)F)ccc2n1-c1cc(C(F)(F)F)ccc1O
5,242,CC(C)c1c(Cl)cc2c(c1Cl)/C(=N/O)C[C@H]1[C@](C)(C(=O)O)CCC[C@]21C
